# Test results published in ChEMBL document CHEMBL3098113, “Identification of quinones as HER2 inhibitors for the treatment of trastuzumab resistant breast cancer” (Bioorg Med Chem Lett, 2014).
# Calls of active or inactive are those of the source. The rule behind the calls is not given here.
# Test system: MCF7
# Assay: Inhibition of HER2 delta16 mutant autophosphorylation at Y1248 in human MCF7 cells at 10 uM after 2 hrs by Western blotting
# Assay type: cell-based
# Conditions: not given
row,Structure (SMILES),inhibition
1,CC(=O)Oc1ccc(O)c2c1C(=O)C=CC2=O,inactive
2,O=C1C(CO)=C(CO)C(=O)c2c(O)ccc(O)c21,Active
3,CS(=O)(=O)CCNCc1ccc(-c2ccc3ncnc(Nc4ccc(OCc5cccc(F)c5)c(Cl)c4)c3c2)o1 [LAPATINIB],Active
4,O=C1C2=C(C(=O)c3c(O)ccc(O)c31)[C@@H](O)[C@@H](O)[C@@H](O)C2,Active
5,CC1=CC(=O)c2c(O)cccc2C1=O [PLUMBAGIN],Active

# Molecular target: T1, Receptor tyrosine-protein kinase erbB-2 (Homo sapiens, UniProt P04626)
# T1 sequence (P04626 whole entry): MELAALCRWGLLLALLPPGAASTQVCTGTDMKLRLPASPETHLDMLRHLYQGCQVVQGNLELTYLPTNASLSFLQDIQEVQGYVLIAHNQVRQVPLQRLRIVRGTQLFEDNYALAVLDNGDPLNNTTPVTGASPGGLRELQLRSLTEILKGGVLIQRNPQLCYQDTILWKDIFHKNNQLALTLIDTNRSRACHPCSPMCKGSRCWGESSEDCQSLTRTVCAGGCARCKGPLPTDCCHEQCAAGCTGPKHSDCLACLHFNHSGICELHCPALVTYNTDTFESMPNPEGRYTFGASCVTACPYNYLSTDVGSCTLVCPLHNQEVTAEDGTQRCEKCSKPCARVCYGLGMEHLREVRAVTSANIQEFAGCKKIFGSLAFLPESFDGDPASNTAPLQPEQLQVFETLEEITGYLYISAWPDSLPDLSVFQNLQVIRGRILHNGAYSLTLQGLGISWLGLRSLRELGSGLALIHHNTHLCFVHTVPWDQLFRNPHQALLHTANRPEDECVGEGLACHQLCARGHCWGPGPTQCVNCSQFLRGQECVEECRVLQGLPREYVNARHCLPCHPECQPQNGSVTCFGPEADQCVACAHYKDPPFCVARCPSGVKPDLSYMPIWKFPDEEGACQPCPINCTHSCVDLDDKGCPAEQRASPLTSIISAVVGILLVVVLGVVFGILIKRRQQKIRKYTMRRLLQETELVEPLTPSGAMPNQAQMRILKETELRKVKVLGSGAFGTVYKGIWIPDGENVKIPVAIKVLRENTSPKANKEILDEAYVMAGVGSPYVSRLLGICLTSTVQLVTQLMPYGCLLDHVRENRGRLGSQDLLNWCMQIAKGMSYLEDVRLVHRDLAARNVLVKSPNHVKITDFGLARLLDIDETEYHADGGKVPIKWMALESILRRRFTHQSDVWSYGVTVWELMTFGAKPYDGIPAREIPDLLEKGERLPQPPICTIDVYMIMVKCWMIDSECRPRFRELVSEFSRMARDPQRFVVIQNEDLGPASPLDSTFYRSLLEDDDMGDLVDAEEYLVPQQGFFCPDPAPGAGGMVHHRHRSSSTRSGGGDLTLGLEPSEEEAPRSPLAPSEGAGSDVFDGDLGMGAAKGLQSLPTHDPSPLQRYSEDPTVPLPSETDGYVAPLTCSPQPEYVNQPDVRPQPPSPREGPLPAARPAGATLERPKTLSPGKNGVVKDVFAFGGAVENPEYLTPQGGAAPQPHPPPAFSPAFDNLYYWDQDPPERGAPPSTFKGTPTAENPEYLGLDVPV
# Assay: Inhibition of HER2 autophosphorylation at Y1248 in human MCF7 cells at 10 uM after 2 hrs by Western blotting
# Assay type: cell-based
# Conditions: not given
row,Structure (SMILES),inhibition
1,CC(=O)Oc1ccc(O)c2c1C(=O)C=CC2=O,inactive
2,O=C1C(CO)=C(CO)C(=O)c2c(O)ccc(O)c21,Active
3,CS(=O)(=O)CCNCc1ccc(-c2ccc3ncnc(Nc4ccc(OCc5cccc(F)c5)c(Cl)c4)c3c2)o1 [LAPATINIB],Active
4,O=C1C2=C(C(=O)c3c(O)ccc(O)c31)[C@@H](O)[C@@H](O)[C@@H](O)C2,Active
5,CC1=CC(=O)c2c(O)cccc2C1=O [PLUMBAGIN],Active

# Molecular target: T1, Receptor tyrosine-protein kinase erbB-2
# Assay: Inhibition of HER2 autophosphorylation at Y1248 in human MCF7 cells expressing pcDNA3 at 10 uM after 2 hrs by Western blotting
# Assay type: cell-based
# Conditions: not given
row,Structure (SMILES),inhibition
1,CC(=O)Oc1ccc(O)c2c1C(=O)C=CC2=O,inactive
2,O=C1C(CO)=C(CO)C(=O)c2c(O)ccc(O)c21,Active
3,CS(=O)(=O)CCNCc1ccc(-c2ccc3ncnc(Nc4ccc(OCc5cccc(F)c5)c(Cl)c4)c3c2)o1 [LAPATINIB],Active
4,O=C1C2=C(C(=O)c3c(O)ccc(O)c31)[C@@H](O)[C@@H](O)[C@@H](O)C2,Active
5,CC1=CC(=O)c2c(O)cccc2C1=O [PLUMBAGIN],Active

# Molecular target: T1, Receptor tyrosine-protein kinase erbB-2
# Assay: Inhibition of HER2 (unknown origin) by ADP-Glo assay
# Conditions: not given
row,Structure (SMILES),IC50
1,O=C1C(CO)=C(CO)C(=O)c2c(O)ccc(O)c21,11.4 µM
2,O=C1C2=C(C(=O)c3c(O)ccc(O)c31)[C@@H](O)[C@@H](O)[C@@H](O)C2,10.8 µM
3,CC1=CC(=O)c2c(O)cccc2C1=O [PLUMBAGIN],30.8 µM

# Test system: MCF7
# Assay: Cytotoxicity against human MCF7 cells expressing HER2delta16 assessed as reduction of cell viability after 48 hrs CellTiter-Glo assay
# Assay type: functional, cell-based
# Conditions: MCF7, 48 h
row,Structure (SMILES),IC50
1,O=C1C(CO)=C(CO)C(=O)c2c(O)ccc(O)c21,0.93 µM
2,CS(=O)(=O)CCNCc1ccc(-c2ccc3ncnc(Nc4ccc(OCc5cccc(F)c5)c(Cl)c4)c3c2)o1 [LAPATINIB],19.2 µM
3,O=C1C2=C(C(=O)c3c(O)ccc(O)c31)[C@@H](O)[C@@H](O)[C@@H](O)C2,0.91 µM
4,CC1=CC(=O)c2c(O)cccc2C1=O [PLUMBAGIN],5.1 µM

# Test system: MCF7
# Assay: Cytotoxicity against human MCF7 cells expressing HER2 assessed as reduction of cell viability after 48 hrs CellTiter-Glo assay
# Assay type: functional, cell-based
# Conditions: MCF7, 48 h
row,Structure (SMILES),IC50
1,O=C1C(CO)=C(CO)C(=O)c2c(O)ccc(O)c21,0.82 µM
2,CS(=O)(=O)CCNCc1ccc(-c2ccc3ncnc(Nc4ccc(OCc5cccc(F)c5)c(Cl)c4)c3c2)o1 [LAPATINIB],15.8 µM
3,O=C1C2=C(C(=O)c3c(O)ccc(O)c31)[C@@H](O)[C@@H](O)[C@@H](O)C2,0.87 µM
4,CC1=CC(=O)c2c(O)cccc2C1=O [PLUMBAGIN],2.84 µM

# Test system: MCF7
# Assay: Cytotoxicity against human MCF7 cells expressing pcDNA3 assessed as reduction of cell viability after 48 hrs CellTiter-Glo assay
# Assay type: functional, cell-based
# Conditions: MCF7, 48 h
row,Structure (SMILES),IC50
1,O=C1C(CO)=C(CO)C(=O)c2c(O)ccc(O)c21,0.5 µM
2,CS(=O)(=O)CCNCc1ccc(-c2ccc3ncnc(Nc4ccc(OCc5cccc(F)c5)c(Cl)c4)c3c2)o1 [LAPATINIB],15.7 µM
3,O=C1C2=C(C(=O)c3c(O)ccc(O)c31)[C@@H](O)[C@@H](O)[C@@H](O)C2,0.47 µM
4,CC1=CC(=O)c2c(O)cccc2C1=O [PLUMBAGIN],3.35 µM

# Test system: MCF7
# Assay: Cytotoxicity against human MCF7 cells expressing pcDNA3 assessed as reduction of cell viability at 10 uM after 48 hrs CellTiter-Glo assay
# Assay type: functional
# Conditions: not given
row,Structure (SMILES),Activity
1,O=C1C(CO)=C(CO)C(=O)c2c(O)ccc(O)c21,>90%
2,CS(=O)(=O)CCNCc1ccc(-c2ccc3ncnc(Nc4ccc(OCc5cccc(F)c5)c(Cl)c4)c3c2)o1 [LAPATINIB],<50%
3,O=C1C2=C(C(=O)c3c(O)ccc(O)c31)[C@@H](O)[C@@H](O)[C@@H](O)C2,>90%
4,CC1=CC(=O)c2c(O)cccc2C1=O [PLUMBAGIN],>90%

# Test system: MCF7
# Assay: Cytotoxicity against human MCF7 cells expressing HER2delta16 assessed as reduction of cell viability at 10 uM after 48 hrs CellTiter-Glo assay
# Assay type: functional
# Conditions: not given
row,Structure (SMILES),Activity
1,O=C1C(CO)=C(CO)C(=O)c2c(O)ccc(O)c21,>90%
2,CS(=O)(=O)CCNCc1ccc(-c2ccc3ncnc(Nc4ccc(OCc5cccc(F)c5)c(Cl)c4)c3c2)o1 [LAPATINIB],<50%
3,O=C1C2=C(C(=O)c3c(O)ccc(O)c31)[C@@H](O)[C@@H](O)[C@@H](O)C2,>90%
4,CC1=CC(=O)c2c(O)cccc2C1=O [PLUMBAGIN],>90%

# Test system: MCF7
# Assay: Cytotoxicity against human MCF7 cells expressing HER2 assessed as reduction of cell viability at 10 uM after 48 hrs CellTiter-Glo assay
# Assay type: functional
# Conditions: not given
row,Structure (SMILES),Activity
1,O=C1C(CO)=C(CO)C(=O)c2c(O)ccc(O)c21,>90%
2,CS(=O)(=O)CCNCc1ccc(-c2ccc3ncnc(Nc4ccc(OCc5cccc(F)c5)c(Cl)c4)c3c2)o1 [LAPATINIB],<50%
3,O=C1C2=C(C(=O)c3c(O)ccc(O)c31)[C@@H](O)[C@@H](O)[C@@H](O)C2,>90%
4,CC1=CC(=O)c2c(O)cccc2C1=O [PLUMBAGIN],>90%
